Usually IC50 stands for the concentration that inhibits the measured activity by half. A word on the inhibition in vivo: it is how much of the control response was suppressed.

Active and inactive are the calls of the source. No cut-off for these calls is given here.

The results in this text go back to ChEMBL document CHEMBL5550206, “Identification of 6-Fluorine-Substituted Coumarin Analogues as POLRMT Inhibitors with High Potency and Safety for Treatment of Pancreatic Cancer” (J Med Chem, 2024).

Data set [1] deals with MIA PaCa-2. As to the kind of experiment: Antiproliferative activity against human MIA PaCa-2 cells assessed as cell viability measured after 168 hrs incubation by SRB assay. Conditions: MIA PaCa-2, 168 h. In kind it is functional, cell-based.
Data set [2] deals with DNA-directed RNA polymerase, mitochondrial (Homo sapiens) (UniProt O00411). As to the kind of experiment: Inhibition of human POLRMT in human MIA PaCa-2 cells assessed as mitochondria coded ubiquinone oxidoreductase core subunit 1 (ND I) transcript level at 500 nM measured after 24 hrs by RT-qPCR analysis relative to control. Details: scale not given: the % may be the effect or the level left.

The test system of data set [3] is MIA PaCa-2. As to the kind of experiment: Potency index, ratio of IMT1B IC50 to test compound […] for antiproliferative activity against human MIA PaCa-2 cells assessed as cell viability measured after 168 hrs incubation by SRB assay. In kind it is functional.
The test system of data set [4] is MIA PaCa-2. As to the kind of experiment: Reduction in number of mitochondria in human MIA PaCa-2 cells measured after 96 hrs by Mito-Tracker Green and DAPI staining based assay. Format: functional, cell-based. Conditions: dose 10-1000 nM.
Data set [5] is described as follows: Toxicity in BALB/c mouse xenografted with human MIA PaCa-2 cells assessed as pathological change in heart at 100 mg/kg, iv once daily for 25 consecutive day after 2 weeks of cells injection by H and E staining based optical microscopic analysis. In kind it is organism-based. Conditions: in vivo, 336 h. (In general: A xenograft is tissue or cells of one species grown in another, often human tumour cells in immunodeficient mice.)

Another data set deals with CAPAN-1. As to the kind of experiment: Antiproliferative activity against human CAPAN-1 cells assessed as cell viability measured after 168 hrs incubation by SRB assay. In kind it is functional, cell-based. Conditions: CAPAN-1, 168 h. (The SRB assay estimates cell density from bound dye.)
In another data set the test system is PANC-1. Kind of data set: Antiproliferative activity against human PANC-1 cells assessed as cell viability measured after 168 hrs incubation by SRB assay. In kind it is functional, cell-based. The conditions noted are these: PANC-1, 168 h.
A short description of data set [6]: Antiproliferative activity against human […] cells assessed as cell viability measured after 168 hrs incubation by SRB assay. Format: functional, cell-based.
Data set [7] can be described thus: Toxicity in BALB/c mouse xenografted with human MIA PaCa-2 cells assessed as pathological change in spleen at 100 mg/kg, iv once daily for 25 consecutive day after 2 weeks of cells injection by H and E staining based optical microscopic analysis. Format: organism-based. The conditions noted are these: in vivo, 336 h.
Data set [8] in a line: Toxicity in BALB/c mouse xenografted with human MIA PaCa-2 cells assessed as pathological change in kidney at 100 mg/kg, iv once daily for 25 consecutive day after 2 weeks of cells injection by H and E staining based optical microscopic analysis. Conditions: in vivo, 336 h. Format: organism-based.
Data set [9] in a line: Toxicity in BALB/c mouse xenografted with human MIA PaCa-2 cells assessed as pathological change in liver at 100 mg/kg, iv once daily for 25 consecutive day after 2 weeks of cells injection by H and E staining based optical microscopic analysis. Format: organism-based. The conditions noted are these: in vivo, 336 h.
For data set [10], the system named is MIA PaCa-2. Kind of data set: Induction of intracellular ROS generation in human MIA PaCa-2 cells at 0.1 to 5 uM incubated for 96 hrs by DCFH-DA staining based flow cytometry. The conditions noted are these: dose 0.1-5 µM. Format: functional, cell-based. In general terms: A flow cytometer gives signals particle by particle.
Data set [11] can be described thus: Toxicity in BALB/c mouse xenografted with human MIA PaCa-2 cells assessed as pathological change in lung at 100 mg/kg, iv once daily for 25 consecutive day after 2 weeks of cells injection by H and E staining based optical microscopic analysis. In kind it is organism-based. Conditions: in vivo, 336 h.
The subject of data set [12] is MIA PaCa-2. As to the kind of experiment: Effect on mitochondrial membrane potential loss in human MIA PaCa-2 cells assessed as change in membrane potential at 0.1 to 5 uM incubated for 96 hrs by JC-1 staining based flow cytometry analysis. Format: functional, cell-based. Conditions: dose 0.1-5 µM.
The test system of data set [13] is MIA PaCa-2. As to the kind of experiment: In vivo antitumor activity against human MIA PaCa-2 cells xenografted in BALB/c mouse assessed as reduction in tumor weight at 100 mg/kg, iv once daily for 25 consecutive day after 2 weeks of cells injection relative to control. In kind it is functional. Conditions: MIA PaCa-2, 600 h, time 25 day.
Data set [14] in a line: Antiproliferative activity against HUVEC cells assessed as cell viability measured after 168 hrs incubation by SRB assay. Conditions: human. Format: toxicity, cell-based.

Chain of DNA-directed RNA polymerase, mitochondrial (Homo sapiens) (O00411 whole entry): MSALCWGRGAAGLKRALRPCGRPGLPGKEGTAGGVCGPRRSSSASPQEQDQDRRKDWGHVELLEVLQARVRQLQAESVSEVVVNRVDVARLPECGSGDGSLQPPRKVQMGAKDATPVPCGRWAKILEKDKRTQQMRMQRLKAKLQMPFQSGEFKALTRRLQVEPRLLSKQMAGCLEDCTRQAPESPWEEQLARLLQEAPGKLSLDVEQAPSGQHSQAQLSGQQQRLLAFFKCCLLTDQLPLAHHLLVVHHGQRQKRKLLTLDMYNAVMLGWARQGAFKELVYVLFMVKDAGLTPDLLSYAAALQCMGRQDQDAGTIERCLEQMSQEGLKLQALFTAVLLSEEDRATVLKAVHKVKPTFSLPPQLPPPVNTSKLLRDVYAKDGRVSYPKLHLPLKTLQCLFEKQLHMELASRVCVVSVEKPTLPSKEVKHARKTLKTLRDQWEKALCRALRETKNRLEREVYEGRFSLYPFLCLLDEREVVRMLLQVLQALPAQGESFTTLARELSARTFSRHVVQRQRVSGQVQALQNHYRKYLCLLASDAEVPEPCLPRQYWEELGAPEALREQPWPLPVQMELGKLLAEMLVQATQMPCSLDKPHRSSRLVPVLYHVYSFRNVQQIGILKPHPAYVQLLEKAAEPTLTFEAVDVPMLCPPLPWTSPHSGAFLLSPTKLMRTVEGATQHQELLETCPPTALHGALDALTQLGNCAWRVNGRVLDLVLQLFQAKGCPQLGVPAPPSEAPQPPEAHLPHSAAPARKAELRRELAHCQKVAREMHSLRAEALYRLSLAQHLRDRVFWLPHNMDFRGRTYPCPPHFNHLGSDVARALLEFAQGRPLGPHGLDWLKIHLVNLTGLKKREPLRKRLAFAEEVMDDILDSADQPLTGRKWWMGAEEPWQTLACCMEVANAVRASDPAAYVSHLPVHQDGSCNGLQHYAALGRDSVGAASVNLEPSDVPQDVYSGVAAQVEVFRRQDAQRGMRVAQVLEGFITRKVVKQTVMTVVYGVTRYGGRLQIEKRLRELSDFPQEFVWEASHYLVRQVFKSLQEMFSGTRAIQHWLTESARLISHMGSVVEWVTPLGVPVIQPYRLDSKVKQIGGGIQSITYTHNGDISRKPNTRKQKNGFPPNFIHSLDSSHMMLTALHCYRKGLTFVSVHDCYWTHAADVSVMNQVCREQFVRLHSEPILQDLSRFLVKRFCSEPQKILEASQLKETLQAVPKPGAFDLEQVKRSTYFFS

`C[C@@H](Oc1cc2oc(=O)cc(-c3ccc(F)cc3Cl)c2cc1F)C(=O)N1CCCC(C#N)C1` (stereo partly drawn): the IC50 in the data set with MIA PaCa-2 [1] is 305 nM. In addition, the Activity in [2] amounted to 26%.
As to `CC(C)c1cc2c(-c3ccc(F)cc3Cl)cc(=O)oc2cc1O[C@H](C)C(=O)N1CCC[C@H](C(=O)O)C1`, the IC50 in the data set with MIA PaCa-2 [1] came out at 1090 nM. Also, in data set [2], the Activity came out at 46%.
In the same order, the values of `CCN(CC)C(=O)[C@@H](C)Oc1cc2oc(=O)cc(-c3ccccc3Cl)c2cc1F` are 14 nM and 10%.
For the molecule `C[C@@H](Oc1cc(Cl)c2c(-c3ccc(F)cc3Cl)cc(=O)oc2c1)C(=O)N1CCC[C@H](C(=O)O)C1`, in the data set with MIA PaCa-2 [1], the IC50 was over 5000 nM. Besides, in data set [2], the Activity was found to be 85%.
In the same order, the values of `C[C@@H](Oc1cc2oc(=O)cc(-c3ccc(F)cc3Cl)c2cc1F)C(=O)NCCC#N` are 1160 nM and 51%.
On to `C[C@@H](Oc1cc2oc(=O)cc(-c3ccc(F)cc3Cl)c2cc1F)C(=O)N1CCC(Cl)CC1`, for which the 50% inhibitory concentration (IC50) in the data set with MIA PaCa-2 [1] stood at 523 nM. Further, the Activity in [2] amounted to 34%.
In the same order, the values of `C[C@@H](Oc1cc2oc(=O)cc(-c3ccc(F)cc3Cl)c2cc1F)C(=O)N1CCCCC1` are 78 nM and 16%.
Regarding `C[C@@H](Oc1cc2oc(=O)cc(-c3ccc(F)cc3Cl)c2cc1F)C(=O)N(C)C1COC1`, the IC50 in the data set with MIA PaCa-2 [1] was found to be 1690 nM. Further, the Activity in [2] was determined as 50%.
The matching figures for `CC1CCN(C(=O)[C@@H](C)Oc2cc3oc(=O)cc(-c4ccc(F)cc4Cl)c3cc2F)CC1`: 486 nM and 31%.
With `C[C@@H](Oc1cc2oc(=O)cc(-c3ccc(F)cc3Cl)c2cc1F)C(=O)N1CCCC1`, the IC50 with MIA PaCa-2 [1] stood at 456 nM. Also, the Activity in data set [2] turned out to be 35%.
In the case of `CCN(CC)C(=O)[C@@H](C)Oc1cc2oc(=O)cc(-c3ccc(F)cc3Cl)c2cc1F`, the “Ratio IC50” value in the data set on MIA PaCa-2 [3] is 3. Besides, the concentration for half-maximal inhibition (IC50) in the data set on MIA PaCa-2 [1] was determined as 44 nM. For the same molecule, the Activity in data set [2] was 13%.
Consider `C[C@@H](Oc1cc2oc(=O)cc(-c3ccc(F)cc3Cl)c2cc1F)C(=O)N1CCC1`, for which the IC50 in the data set on MIA PaCa-2 [1] is 493 nM. Besides, in data set [2], the Activity was found to be 33%.
Regarding `C[C@@H](Oc1ccc2c(-c3ccc(F)cc3Cl)cc(=O)oc2c1Cl)C(=O)N1CCC[C@H](C(=O)O)C1`, in the data set with MIA PaCa-2 [1], the half-maximal inhibitory concentration (IC50) was over 5000 nM. The Activity in data set [2] was found to be 119%.
In the case of `C[C@@H](Oc1cc2oc(=O)cc(-c3ccc(F)cc3Cl)c2cc1F)C(=O)N(C)C`, the IC50 in the data set with MIA PaCa-2 [1] was determined as 171 nM. Also, the Activity in data set [2] is 25%.
The matching figures for `C[C@@H](Oc1cc2oc(=O)cc(-c3ccc(F)cc3Cl)c2cc1F)C(=O)NCC1CC1`: 294 nM and 26%.
Consider `CCN(CC)C(=O)[C@@H](C)Oc1cc2oc(=O)cc(-c3ccccc3OC)c2cc1F`, for which the 50% inhibitory concentration (IC50) with MIA PaCa-2 [1] amounted to 1130 nM. For the same molecule, the Activity in data set [2] is 48%.
In the same order, the values of `CCN(CC)C(=O)[C@@H](C)Oc1cc2oc(=O)cc(-c3cccc4ccccc34)c2cc1F` are 739 nM and 42%.
Consider `C[C@@H](Oc1cc2oc(=O)cc(-c3ccc(F)cc3Cl)c2cc1F)C(=O)N1CCC(F)CC1`, for which the IC50 with MIA PaCa-2 [1] was 115 nM. The Activity in [2] turned out to be 19%.
With `C[C@@H](Oc1cc2oc(=O)cc(-c3ccc(F)cc3Cl)c2cc1F)C(=O)N1CCC(F)(F)CC1`, the IC50 with MIA PaCa-2 [1] turned out to be 377 nM. Moreover, the Activity in data set [2] was found to be 28%.
The matching figures for `C[C@@H](Oc1cc2oc(=O)cc(-c3ccc(F)cc3Cl)c2cc1F)C(=O)NCC(F)F`: 139 nM and 22%.
In the same order, the values of `CCN(CC)C(=O)[C@@H](C)Oc1cc2oc(=O)cc(-c3ccccc3)c2cc1F` are 682 nM and 44%.
As to `C[C@@H](Oc1ccc2c(-c3ccc(F)cc3Cl)cc(=O)oc2c1)C(=O)N1CCC[C@H](C(=O)O)C1`, the Activity entry with MIA PaCa-2 [4] was “Dose-Dependent Effect”; in data set [5], “Non-Toxic”; in data set [7] it was “Non-Toxic”; in [8] it was “Non-Toxic”; in data set [9], “Non-Toxic”; in [2] it was 23%. Further, the Activity result in data set [11] is “Non-Toxic”. Also, the half-maximal inhibitory concentration (IC50) amounted to 1350 nM in the data set on CAPAN-1, 1570 nM in the data set with PANC-1, 67 nM in data set [6] and 159 nM in the data set on MIA PaCa-2 [1]. Moreover, the result with MIA PaCa-2 [10] and in the data set with MIA PaCa-2 [12] was inactive. In the data set on MIA PaCa-2 [13], the inhibition in vivo at 100 mg/kg was found to be 44.8%. Moreover, the IC50 at 168 h in [14] was over 50000 nM.
Turning to `COc1cc2c(-c3ccc(F)cc3Cl)cc(=O)oc2cc1O[C@H](C)C(=O)N1CCC[C@H](C(=O)O)C1`, the IC50 in the data set with MIA PaCa-2 [1] is over 5000 nM. For the same molecule, the Activity in [2] turned out to be 67%.
In the same order, the values of `CCN(CC)C(=O)[C@@H](C)Oc1cc2oc(=O)cc(-c3ccc(Cl)cc3)c2cc1F` are 2240 nM and 55%.
In the same order, the values of `C[C@@H](Oc1cc2oc(=O)cc(-c3ccc(F)cc3Cl)c2cc1F)C(=O)N1CCC[C@H](C(=O)O)C1` are 145 nM and 22%.
For the molecule `C[C@@H](Oc1cc2oc(=O)cc(-c3ccc(F)cc3Cl)c2cc1Cl)C(=O)N1CCC[C@H](C(=O)O)C1`, the Activity in data set [2] came out at 30%.
Take `CO[C@H]1CC[C@@H](NC(=O)[C@@H](C)Oc2cc3oc(=O)cc(-c4ccc(F)cc4Cl)c3cc2F)CC1`: the 50% inhibitory concentration (IC50) in the data set with MIA PaCa-2 [1] was determined as 2230 nM. Moreover, the Activity in data set [2] is 52%.
Take `CCN(CC)C(=O)[C@@H](C)Oc1cc2oc(=O)cc(-c3ccccc3F)c2cc1F`: the IC50 in the data set on MIA PaCa-2 [1] came out at 400 nM. For the same molecule, the Activity in data set [2] came out at 30%.
In the same order, the values of `CCN(CC)C(=O)[C@@H](C)Oc1cc2oc(=O)cc(-c3cccc(Cl)c3)c2cc1F` are 3240 nM and 60%.
The matching figures for `C[C@@H](Oc1cc2oc(=O)cc(-c3ccc(F)cc3Cl)c2cc1F)C(=O)N1CCCOCC1`: 72 nM and 15%.
